Experimental data reported in ChEMBL document CHEMBL1132059, “Antitumor agents 187: synthesis and cytotoxicity of substituted 8,8-dimethyl-2H,8H-pyrano[6,5-h]quinoline-2-one and related compounds” (1999).
Values after ≈ are worked out from the molar mass of the structure shown. Active and inactive are the calls of the source. The rule behind the calls is not given here.

How the values were obtained:
A549 = assay: Cytotoxic activity against human lung carcinoma (A-549) cell line; assay type: functional; settings: read-out: ED50 (the source's name)
CAKI-1 [1] = assay: Cytotoxic activity against human renal cancer (CAKI-1) cell line; assay type: functional; settings: read-out: ED50 (the source's name)
HCT-8 [2] = assay: Cytotoxic activity against human ileocecal carcinoma (HCT-8) cell line; assay type: functional; settings: read-out: ED50 (the source's name)
KB = assay: Cytotoxic activity against human epidermoid carcinoma of the nasopharynx (KB) cell line; assay type: functional; settings: read-out: ED50 (the source's name)
MCF7 = assay: Cytotoxic activity against human breast cancer (MCF-7) cell line; assay type: functional; settings: read-out: ED50 (the source's name)
1A9 = assay: Cytotoxic activity against human ovarian cancer (1A9) cell line; assay type: functional; settings: read-out: ED50 (the source's name)
CAKI-1 [3] = assay: Cytotoxic activity against human renal cancer (CAKI-1) cell line; NA=Not active; assay type: functional, cell-based
CAKI-1 [4] = assay: Compound was tested for in vitro growth inhibition of human […] cancer CAKI-1 cell line; assay type: functional
MDA-MB-435 = assay: Compound was tested for in vitro growth inhibition of human breast cancer MDA-MB-435 cell line; assay type: functional
NCI-H226 = assay: Compound was tested for in vitro growth inhibition of human non-small cell lung cancer cell line NCI-H226; assay type: functional
OVCAR-3 = assay: Compound was tested for in vitro growth inhibition of human ovarian cancer OVCAR-3 cell line; assay type: functional
SF-295 = assay: Compound was tested for in vitro growth inhibition of human […] SF-295 cell line; assay type: functional
SK-MEL-28 = assay: Compound was tested for in vitro growth inhibition of human melanoma SK-MEL-28 cell line; assay type: functional
PD-145 = assay: Compound was tested for in vitro growth inhibition of human prostate cancer PD-145 cell line; assay type: functional
HL-60 = assay: Compound was tested for in vitro growth inhibition of human leukemia cell line HL60; assay type: functional
COLO 205 = assay: Compound was tested for in vitro growth inhibition of human colon cancer COLO 205 cell line; assay type: functional
HCT-116 = assay: Compound was tested for in vitro growth inhibition of human colon cancer HCT116 cell line; assay type: functional
HCT-8 [5] = assay: Cytotoxic activity against human ileocecal carcinoma (HCT-8) cell line; NA=Not active; assay type: functional, cell-based

SMILES | EC50 (A549) | EC50 (CAKI-1 [1]) | EC50 (HCT-8 [2]) | EC50 (KB) | EC50 (MCF7) | EC50 (1A9) | ED50 (CAKI-1 [3]) | GI50 (CAKI-1 [4]) | GI50 (MDA-MB-435) | GI50 (NCI-H226) | GI50 (OVCAR-3) | GI50 (SF-295) | GI50 (SK-MEL-28) | GI50 (PD-145) | GI50 (HL-60) | GI50 (COLO 205) | GI50 (HCT-116) | ED50 (HCT-8 [5])
Cc1cc2c(C)c(C)c(O)nc2c2c1OC(C)(C)C=C2 | 41 µg/mL (≈ 152 µM) | 43 µg/mL (≈ 160 µM) | 41 µg/mL (≈ 152 µM) | 37 µg/mL (≈ 137 µM) | 38 µg/mL (≈ 141 µM) | – | – | – | – | – | – | – | – | – | – | – | – | –
CC1(C)C=Cc2c(ccc3c(-c4ccccc4)cc(O)nc23)O1 | 36.3 µg/mL (≈ 120 µM) | > 40 µg/mL | 28 µg/mL (≈ 92.3 µM) | > 40 µg/mL | 30 µg/mL (≈ 98.9 µM) | 10 µg/mL (≈ 33 µM) | – | – | – | – | – | – | – | – | – | – | – | –
Cc1cc(=O)n(C(=O)OC(C)(C)C)c2c3c(ccc12)OC(C)(C)C=C3 | 4.3 µg/mL (≈ 12.6 µM) | 4.5 µg/mL (≈ 13.2 µM) | 3.6 µg/mL (≈ 10.5 µM) | 2.5 µg/mL (≈ 7.32 µM) | 2.4 µg/mL (≈ 7.03 µM) | – | – | – | – | – | – | – | – | – | – | – | – | –
Cc1cc(S)nc2c3c(ccc12)OC(C)(C)C=C3 | 30.3 µg/mL (≈ 118 µM) | – | 28.8 µg/mL (≈ 112 µM) | 23 µg/mL (≈ 89.4 µM) | 13.8 µg/mL (≈ 53.6 µM) | 12 µg/mL (≈ 46.6 µM) | inactive | – | – | – | – | – | – | – | – | – | – | –
Cc1cc(O)nc2c3c(ccc12)OC(C)(C)C=C3 | 2.2 µg/mL (≈ 9.12 µM) | 2.5 µg/mL (≈ 10.4 µM) | 1.7 µg/mL (≈ 7.05 µM) | 1.6 µg/mL (≈ 6.63 µM) | 1.7 µg/mL (≈ 7.05 µM) | – | – | 6.17 µM | 1.74 µM | > 100 µM | 6.03 µM | 30.2 µM | > 100 µM | 3.63 µM | 0.427 µM | 2.75 µM | 4.9 µM | –
CC1(C)C=Cc2c(ccc3ccc(O)nc23)O1 | 18 µg/mL (≈ 79.2 µM) | > 40 µg/mL | 19.3 µg/mL (≈ 84.9 µM) | 13.1 µg/mL (≈ 57.6 µM) | 14.7 µg/mL (≈ 64.7 µM) | 5.8 µg/mL (≈ 25.5 µM) | – | – | – | – | – | – | – | – | – | – | – | –
CCCc1cc(O)nc2c3c(ccc12)OC(C)(C)C=C3 | > 40 µg/mL | – | – | > 40 µg/mL | > 40 µg/mL | > 40 µg/mL | inactive | – | – | – | – | – | – | – | – | – | – | inactive
Cc1c(O)nc2c3c(ccc2c1C)OC(C)(C)C=C3 | 25 µg/mL (≈ 97.9 µM) | 35.5 µg/mL (≈ 139 µM) | 32 µg/mL (≈ 125 µM) | 23 µg/mL (≈ 90.1 µM) | 19 µg/mL (≈ 74.4 µM) | – | – | – | – | – | – | – | – | – | – | – | – | –
